Source: ChEMBL document CHEMBL5244281, “Tackling multidrug-resistant Staphylococcus aureus by natural products and their analogues acting as NorA efflux pump inhibitors” (Bioorg Med Chem, 2023)
Converted amounts (≈) assume the structure as drawn.

Legend:
Staphylococcus aureus [1] = assay: Synergistic antibacterial activity against Staphylococcus aureus 1199B overexpressing NorA efflux pump assessed as fractional inhibitory concentration index in presence of norfloxacin by chequer board assay; format: functional
Staphylococcus aureus [2] = assay: Synergistic antibacterial activity against methicillin-susceptible Staphylococcus aureus 1199B overexpressing NorA efflux pump assessed as reduction in norfloxacin MIC at 64 ug/ml incubated for 18 to 24 hrs in presence of norfloxacin by MTT assay; format: functional; details: dose 64 µg/ml, time 18-24 hrs
Staphylococcus aureus [3] = assay: Synergistic antibacterial activity against methicillin-susceptible Staphylococcus aureus 1199B overexpressing NorA efflux pump assessed as fractional inhibitory concentration index at 64 ug/ml incubated for 18 to 24 hrs in presence of norfloxacin by checkerboard microdilution assay; format: functional; details: dose 64 µg/ml; time 18-24 hrs
Staphylococcus aureus [4] = assay: Antibacterial activity against Staphylococcus aureus 1199B overexpressing NorA efflux pump assessed as bacterial growth inhibition incubated for 18 hrs by broth dilution method; format: functional
Staphylococcus aureus [5] = assay: Antibacterial activity against Staphylococcus aureus K1758 with NorA knockout assessed as bacterial growth inhibition incubated for 18 hrs by broth dilution method; format: functional
[6] = target: T1, Quinolone resistance protein NorA (Staphylococcus aureus) (UniProt P0A0J7); assay: Inhibition of NorA efflux pump in Staphylococcus aureus 1199B overexpressing NorA efflux pump assessed as decrease in ciprofloxacin MIC at 1/4 times MIC and measured for 45 mins in presence of ciprofloxacin by fluorimetric analysis (Rvb=8 ug/ml)
T1 sequence (whole entry): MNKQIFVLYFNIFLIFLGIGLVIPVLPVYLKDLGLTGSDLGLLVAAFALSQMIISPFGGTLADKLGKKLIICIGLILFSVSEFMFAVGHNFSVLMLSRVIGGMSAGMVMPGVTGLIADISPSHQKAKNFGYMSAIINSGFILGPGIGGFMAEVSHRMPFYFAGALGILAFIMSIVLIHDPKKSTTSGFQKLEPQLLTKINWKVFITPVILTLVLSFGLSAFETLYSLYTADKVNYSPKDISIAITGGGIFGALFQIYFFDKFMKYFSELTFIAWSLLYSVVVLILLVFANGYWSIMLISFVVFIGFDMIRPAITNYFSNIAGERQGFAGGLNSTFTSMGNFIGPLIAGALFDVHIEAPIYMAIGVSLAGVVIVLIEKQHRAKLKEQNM

[7] = target: T1, Quinolone resistance protein NorA (Staphylococcus aureus); assay: Inhibition of NorA efflux pump in Staphylococcus aureus 1199B overexpressing NorA efflux pump assessed as decrease in norfloxacin MIC at 1/4 times MIC and measured for 45 mins in presence of norfloxacin by fluorimetric analysis (Rvb=32 ug/ml)
Staphylococcus aureus [8] = assay: Synergistic antibacterial activity against Staphylococcus aureus 1199B overexpressing NorA efflux pump assessed as fractional inhibitory concentration index in presence of norfloxacin incubated for 18 hrs by checkerboard assay; format: functional
Staphylococcus aureus [9] = assay: Synergistic antibacterial activity against Staphylococcus aureus 1199B overexpressing NorA efflux pump assessed as fractional inhibitory concentration index in presence of ciprofloxacin incubated for 18 hrs by checkerboard assay; format: functional
Staphylococcus aureus [10] = assay: Antibacterial activity against wild type Staphylococcus aureus 1199 assessed as bacterial growth inhibition incubated for 24 hrs by microdilution method; format: functional
Staphylococcus aureus [11] = assay: Antibacterial activity against Staphylococcus aureus 1199B overexpressing NorA efflux protein assessed as bacterial growth inhibition incubated for 24 hrs by microdilution method; format: functional
Staphylococcus aureus [12] = assay: Antimicrobial activity against Staphylococcus aureus assessed as bacterial growth inhibition incubated for 18 to 24 hrs by broth microdilution method; format: functional; details: time 18-24 hrs
Bacillus subtilis = assay: Antimicrobial activity against Bacillus subtilis assessed as bacterial growth inhibition incubated for 18 to 24 hrs by broth microdilution method; format: functional; details: time 18-24 hrs
Enterococcus faecalis = assay: Antimicrobial activity against Enterococcus faecalis assessed as bacterial growth inhibition incubated for 18 to 24 hrs by broth microdilution method; format: functional; details: time 18-24 hrs
Escherichia coli [13] = assay: Antimicrobial activity against Escherichia coli assessed as bacterial growth inhibition incubated for 18 to 24 hrs by broth microdilution method; format: functional; details: time 18-24 hrs
Vibrio cholerae = assay: Antimicrobial activity against Vibrio cholerae assessed as bacterial growth inhibition incubated for 18 to 24 hrs by broth microdilution method; format: functional; details: time 18-24 hrs
Klebsiella pneumoniae = assay: Antimicrobial activity against Klebsiella pneumoniae assessed as bacterial growth inhibition incubated for 18 to 24 hrs by broth microdilution method; format: functional; details: time 18-24 hrs
Proteus vulgaris = assay: Antimicrobial activity against Proteus vulgaris assessed as bacterial growth inhibition incubated for 18 to 24 hrs by broth microdilution method; format: functional; details: time 18-24 hrs
Proteus mirabilis = assay: Antimicrobial activity against Proteus mirabilis assessed as bacterial growth inhibition incubated for 18 to 24 hrs by broth microdilution method; format: functional; details: time 18-24 hrs
Shigella dysenteriae = assay: Antimicrobial activity against Shigella dysenteriae assessed as bacterial growth inhibition incubated for 18 to 24 hrs by broth microdilution method; format: functional; details: time 18-24 hrs
Pseudomonas aeruginosa = assay: Antimicrobial activity against Pseudomonas aeruginosa assessed as bacterial growth inhibition incubated for 18 to 24 hrs by broth microdilution method; format: functional; details: time 18-24 hrs
Staphylococcus aureus [14] = assay: Antibacterial activity against norfloxacin resistant Staphylococcus aureus 1199B harboring NorA efflux pump gene assessed as bacterial growth inhibition incubated for 24 hrs by resazurin based microdilution test; format: functional
Staphylococcus aureus [15] = assay: Antibacterial activity against Staphylococcus aureus ATCC 25923 assessed as bacterial growth inhibition incubated for 24 hrs by resazurin based microdilution test; format: functional
Escherichia coli [16] = assay: Antibacterial activity against Escherichia coli ATCC 25922 assessed as bacterial growth inhibition incubated for 24 hrs by resazurin based microdilution test; format: functional
Staphylococcus aureus [17] = assay: Synergistic antimicrobial activity against Staphylococcus aureus 1199B overexpressing NorA efflux pump assessed as reduction in norfloxacin MIC incubated for 24 hrs by MTT colorimetric assay (Rvb= 128 mg/ml); format: functional
Staphylococcus aureus [18] = assay: Synergistic antimicrobial activity against Staphylococcus aureus 1199B overexpressing NorA efflux pump assessed as fractional inhibitory concentration index incubated for 24 hrs by checkerboard method; format: functional

Compound: C=C(C)[C@H](CC=C(C)C)Cc1c(O)cc(O)c2c1O[C@H](c1ccc(O)cc1O)CC2=O [SOPHORAFLAVANONE G]
- fractional inhibitory concentration index (FICI) (Staphylococcus aureus [1]): 0.188

Compound: COc1cc2c(cc1O)CC[n+]1cc3c(OC)c(OC)ccc3cc1-2 [JATRORRHIZINE]
- MIC (Staphylococcus aureus [2]): 16 µg/mL
- fractional inhibitory concentration index (FICI) (Staphylococcus aureus [3]): 0.375

Compound: COc1cc(/C=C/C(=O)N/N=C/c2ccc[nH]2)cc(OC)c1OC
- MIC (Staphylococcus aureus [4]): 64 µg/mL (≈ 194 µM)
- MIC (Staphylococcus aureus [5]): 64 µg/mL (≈ 194 µM)
- MIC [6]: 0.5 µg/mL
- MIC [7]: 1 µg/mL
- fractional inhibitory concentration index (FICI) (Staphylococcus aureus [8]): 0.56
- fractional inhibitory concentration index (FICI) (Staphylococcus aureus [9]): 0.56

Compound: O=C(OC[C@H]1O[C@@H](OC(=O)c2cc(O)c(O)c(OC(=O)c3cc(O)c(O)c(O)c3)c2)[C@H](OC(=O)c2cc(O)c(O)c(OC(=O)c3cc(O)c(O)c(O)c3)c2)[C@@H](OC(=O)c2cc(O)c(O)c(OC(=O)c3cc(O)c(O)c(O)c3)c2)[C@@H]1OC(=O)c1cc(O)c(O)c(OC(=O)c2cc(O)c(O)c(O)c2)c1)c1cc(O)c(O)c(OC(=O)c2cc(O)c(O)c(O)c2)c1 [TANNIC ACID]
- MIC (Staphylococcus aureus [10]): ≥ 1020 µg/mL
- MIC (Staphylococcus aureus [11]): ≥ 1020 µg/mL

Compound: COc1cc(O)c2c(c1)O[C@H](c1ccccc1)CC2=O [PINOSTROBIN]
- MIC (Staphylococcus aureus [12]): 64 µg/mL (≈ 237 µM)
- MIC (Bacillus subtilis): 12 µg/mL (≈ 44.4 µM)
- MIC (Enterococcus faecalis): 12 µg/mL (≈ 44.4 µM)
- MIC (Escherichia coli [13]): 12 µg/mL (≈ 44.4 µM)
- MIC (Vibrio cholerae): 24 µg/mL (≈ 88.8 µM)
- MIC (Klebsiella pneumoniae): 18 µg/mL (≈ 66.6 µM)
- MIC (Proteus vulgaris): 18 µg/mL (≈ 66.6 µM)
- MIC (Proteus mirabilis): 32 µg/mL (≈ 118 µM)
- MIC (Shigella dysenteriae): 12 µg/mL (≈ 44.4 µM)
- MIC (Pseudomonas aeruginosa): 32 µg/mL (≈ 118 µM)

Compound: Oc1ccc2c(c1)O[C@H](c1ccc(O)c(O)c1)[C@@H](O)C2 [FISETINIDOL]
- MIC (Staphylococcus aureus [14]): ≥ 1020 µg/mL
- MIC (Staphylococcus aureus [15]): ≥ 1020 µg/mL
- MIC (Escherichia coli [16]): ≥ 1020 µg/mL

Compound: C/C=C/C1=CC2C(=CC1=O)O[C@H](c1ccc(OC)c(OC)c1)[C@H]2C (stereo partly specified)
- MIC (Staphylococcus aureus [17]): 32000 µg/mL
- fractional inhibitory concentration index (FICI) (Staphylococcus aureus [18]): 0.25
